Experiments:
C13 = assay: Cytotoxicity against cisplatin-resistant cell lines (C13*); assay type: functional, cell-based, Homo sapiens
[1] = Cytotoxicity against human ovarian 2008 (wild type) cell lines; assay type: functional, cell-based
HL-60 = assay: Cytotoxicity against HL-60 leukemia cells; assay type: functional, cell-based, Homo sapiens

Compound | IC50 (C13; Homo sapiens, C13) [µM] | IC50 ([1]; Homo sapiens) [µM] | IC50 (HL-60; Homo sapiens, HL-60) [µM] | IC50 (C13; c13) [µM] | IC50 [1] [µM] | IC50 (HL-60; hl-60) [µM]
CNC(=S)N(C)CCNc1c2ccccc2nc2ccccc12 | 3.7 | 2.2 | 11 |  |  | 
2-(9-acridiniumylamino)ethyl(methyl)amino(imino)methyl(methyl)amine1-PtCl(en) |  |  |  | 9.6 | 3.8 | 0.13
9-acridinylmethylamino-methylaminomethanethione1-PtCl(en) |  |  |  | > 100 | > 100 | 75

— ChEMBL document CHEMBL1134312, “Design, synthesis, and biological activity of a novel non-cisplatin-type platinum-acridine pharmacophore” (J Med Chem, 2001)
